Test results reported in patent publication US11969428B2, “Methods and pharmaceutical compositions for treating lymphoid malignancy” (priority 2011, dated 2024).

Key:
Experiment in all cases: Ambit KinomeScan screening
Format in all cases: binding
Conditions in all cases: CAL-130 10 μM
[1] = molecular target: T1, ABL1(E255K) (Homo sapiens, UniProt P00519, E255K)
T1 construct: unspecified tag ("tagged kinases"); purchased Ambit (KinomeScan screening)
In short: (§1)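 Each kinase, carrying a tag, was challenged to bind immobilized bait while CAL-130 was present (10 μM). Reported numbers are percent of the control signal, lower indicating tighter compound binding.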

[2] = molecular target: T2, ADCK4 (Homo sapiens, UniProt Q96D53)
T2 construct: purchased Ambit (KinomeScan screening)
In short: as §1

[3] = molecular target: T3, ASK1 (Homo sapiens, UniProt Q99683)
T3 construct: purchased Ambit (KinomeScan screening service)
T3 sequence (Q99683 whole entry): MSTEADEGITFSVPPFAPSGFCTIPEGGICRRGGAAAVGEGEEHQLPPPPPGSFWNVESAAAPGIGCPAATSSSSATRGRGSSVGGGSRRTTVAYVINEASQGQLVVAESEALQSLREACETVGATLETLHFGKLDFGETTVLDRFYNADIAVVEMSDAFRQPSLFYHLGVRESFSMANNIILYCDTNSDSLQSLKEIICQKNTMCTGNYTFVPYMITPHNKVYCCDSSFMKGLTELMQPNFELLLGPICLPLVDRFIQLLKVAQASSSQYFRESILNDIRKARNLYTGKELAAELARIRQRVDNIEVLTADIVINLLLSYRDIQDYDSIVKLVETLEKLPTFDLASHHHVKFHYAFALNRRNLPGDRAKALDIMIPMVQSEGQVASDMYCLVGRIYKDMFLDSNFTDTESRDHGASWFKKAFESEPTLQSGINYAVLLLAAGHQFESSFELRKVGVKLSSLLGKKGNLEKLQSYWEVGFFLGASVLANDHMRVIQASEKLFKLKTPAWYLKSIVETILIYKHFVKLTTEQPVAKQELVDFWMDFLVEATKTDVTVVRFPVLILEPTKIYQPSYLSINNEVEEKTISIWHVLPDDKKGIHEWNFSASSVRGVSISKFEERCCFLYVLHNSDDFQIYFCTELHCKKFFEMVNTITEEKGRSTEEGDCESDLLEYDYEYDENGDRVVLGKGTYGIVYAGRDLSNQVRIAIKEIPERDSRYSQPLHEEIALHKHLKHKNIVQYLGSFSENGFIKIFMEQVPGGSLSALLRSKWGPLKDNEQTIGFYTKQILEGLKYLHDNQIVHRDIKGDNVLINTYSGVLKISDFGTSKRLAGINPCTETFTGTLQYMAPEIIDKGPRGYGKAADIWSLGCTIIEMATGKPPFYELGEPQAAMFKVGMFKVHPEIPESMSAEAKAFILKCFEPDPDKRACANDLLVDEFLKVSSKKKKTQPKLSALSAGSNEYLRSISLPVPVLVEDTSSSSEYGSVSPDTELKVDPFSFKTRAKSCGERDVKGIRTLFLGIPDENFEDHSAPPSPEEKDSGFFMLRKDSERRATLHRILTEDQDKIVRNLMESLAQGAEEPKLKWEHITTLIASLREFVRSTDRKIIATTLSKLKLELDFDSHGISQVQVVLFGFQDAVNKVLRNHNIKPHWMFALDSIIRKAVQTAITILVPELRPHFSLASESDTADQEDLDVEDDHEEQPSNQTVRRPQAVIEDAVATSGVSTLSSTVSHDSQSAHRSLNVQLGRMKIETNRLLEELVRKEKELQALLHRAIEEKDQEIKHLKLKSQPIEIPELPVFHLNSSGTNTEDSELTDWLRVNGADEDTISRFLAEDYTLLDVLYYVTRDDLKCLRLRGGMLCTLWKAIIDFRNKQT
In short: as §1

[4] = molecular target: T4, CAMK2G (Homo sapiens, UniProt Q13555)
T4 construct: purchased Ambit (KinomeScan screening)
In short: as §1

[5] = molecular target: T5, CDC2L1 (Homo sapiens, UniProt P21127)
T5 construct: purchased Ambit (KinomeScan screening)
In short: as §1

[6] = molecular target: T6, CDKL2 (Homo sapiens, UniProt Q92772)
T6 construct: purchased Ambit (KinomeScan screening service)
In short: as §1

[7] = molecular target: T7, CSNK1G3 (Homo sapiens, UniProt Q9Y6M4)
T7 construct: purchased Ambit (KinomeScan screening service)
In short: as §1

[8] = molecular target: T8, CTK (Homo sapiens, UniProt P42679)
T8 construct: purchased Ambit (KinomeScan screening service)
In short: as §1

[9] = molecular target: T9, EGFR(E746-A750DEL) (Homo sapiens, UniProt P00533, DEL746-750)
T9 construct: unspecified tag; purchased Ambit (KinomeScan screening service)
In short: as §1

[10] = molecular target: T10, EPHB1 (Homo sapiens, UniProt P54762)
T10 construct: purchased Ambit (KinomeScan screening service)
In short: as §1

[11] = molecular target: T11, ERBB2 (Homo sapiens, UniProt P04626)
T11 construct: purchased Ambit (KinomeScan screening service)
In short: as §1

[12] = molecular target: T12, FGFR1 (Homo sapiens, UniProt P11362)
T12 construct: unspecified tag; purchased Ambit (KinomeScan screening service)
In short: as §1

[13] = molecular target: T13, FGFR3(G697C) (Homo sapiens, UniProt P22607, G697C)
T13 construct: unspecified tag; purchased Ambit (KinomeScan screening service)
In short: as §1

[14] = molecular target: T14, FRK (Homo sapiens, UniProt P42685)
T14 construct: unspecified tag ('tagged kinases'); purchased Ambit (KinomeScan screening service)
T14 sequence (P42685 whole entry): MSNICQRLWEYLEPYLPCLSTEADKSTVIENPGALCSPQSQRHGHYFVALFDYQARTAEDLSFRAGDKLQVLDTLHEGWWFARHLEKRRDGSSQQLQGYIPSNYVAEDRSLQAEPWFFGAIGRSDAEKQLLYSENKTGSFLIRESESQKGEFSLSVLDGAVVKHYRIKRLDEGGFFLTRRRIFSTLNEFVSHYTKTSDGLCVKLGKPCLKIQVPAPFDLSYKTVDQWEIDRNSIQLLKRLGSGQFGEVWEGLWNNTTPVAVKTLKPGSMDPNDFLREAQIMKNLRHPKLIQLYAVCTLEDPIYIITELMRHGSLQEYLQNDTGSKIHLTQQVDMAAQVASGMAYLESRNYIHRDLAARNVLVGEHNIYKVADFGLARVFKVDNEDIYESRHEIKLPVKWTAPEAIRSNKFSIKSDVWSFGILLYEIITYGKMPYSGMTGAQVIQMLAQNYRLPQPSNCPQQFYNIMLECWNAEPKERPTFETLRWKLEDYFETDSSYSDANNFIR
In short: as §1

[15] = molecular target: T15, INSR (Homo sapiens, UniProt P06213)
T15 construct: Ambit (KinomeScan screening)
In short: as §1

[16] = molecular target: T16, IRAK1 (Homo sapiens, UniProt P51617)
T16 construct: Ambit (KinomeScan screening)
In short: as §1

[17] = molecular target: T17, LIMK2 (Homo sapiens, UniProt P53671)
T17 construct: unspecified tag ('tagged kinases'); purchased Ambit (KinomeScan screening service)
In short: as §1

[18] = molecular target: T18, LZK (Homo sapiens, UniProt O43283)
T18 construct: unspecified tag ('tagged kinases'); purchased Ambit (KinomeScan screening service)
In short: as §1

[19] = molecular target: T19, MAP4K3 (Homo sapiens, UniProt Q8IVH8)
T19 construct: Ambit (KinomeScan screening)
T19 sequence (Q8IVH8 whole entry): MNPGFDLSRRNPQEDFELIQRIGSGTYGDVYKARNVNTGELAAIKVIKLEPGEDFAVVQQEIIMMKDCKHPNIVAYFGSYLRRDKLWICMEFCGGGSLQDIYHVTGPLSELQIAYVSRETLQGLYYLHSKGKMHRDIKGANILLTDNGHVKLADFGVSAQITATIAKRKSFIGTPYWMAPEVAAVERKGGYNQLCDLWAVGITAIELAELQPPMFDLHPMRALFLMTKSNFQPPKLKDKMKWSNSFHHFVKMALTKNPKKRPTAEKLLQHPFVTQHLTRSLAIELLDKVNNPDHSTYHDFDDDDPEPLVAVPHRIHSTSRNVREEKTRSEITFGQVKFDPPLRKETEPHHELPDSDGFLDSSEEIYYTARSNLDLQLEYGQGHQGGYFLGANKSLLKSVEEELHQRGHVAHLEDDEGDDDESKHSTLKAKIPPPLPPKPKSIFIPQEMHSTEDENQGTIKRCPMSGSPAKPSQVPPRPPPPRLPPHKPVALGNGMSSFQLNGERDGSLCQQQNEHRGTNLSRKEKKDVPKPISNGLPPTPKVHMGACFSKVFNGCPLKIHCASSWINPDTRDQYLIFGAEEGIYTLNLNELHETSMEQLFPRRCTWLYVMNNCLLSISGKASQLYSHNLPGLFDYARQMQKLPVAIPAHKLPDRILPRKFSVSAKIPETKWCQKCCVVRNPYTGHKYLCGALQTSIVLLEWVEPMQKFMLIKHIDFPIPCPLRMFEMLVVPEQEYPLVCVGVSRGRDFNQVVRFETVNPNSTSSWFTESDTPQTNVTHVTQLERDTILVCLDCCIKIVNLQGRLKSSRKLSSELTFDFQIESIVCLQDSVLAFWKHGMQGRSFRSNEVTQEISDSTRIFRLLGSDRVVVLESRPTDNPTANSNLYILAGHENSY
In short: as §1

[20] = molecular target: T20, MAP4K4 (Homo sapiens, UniProt O95819)
T20 construct: Ambit (KinomeScan screening)
T20 sequence (O95819 whole entry): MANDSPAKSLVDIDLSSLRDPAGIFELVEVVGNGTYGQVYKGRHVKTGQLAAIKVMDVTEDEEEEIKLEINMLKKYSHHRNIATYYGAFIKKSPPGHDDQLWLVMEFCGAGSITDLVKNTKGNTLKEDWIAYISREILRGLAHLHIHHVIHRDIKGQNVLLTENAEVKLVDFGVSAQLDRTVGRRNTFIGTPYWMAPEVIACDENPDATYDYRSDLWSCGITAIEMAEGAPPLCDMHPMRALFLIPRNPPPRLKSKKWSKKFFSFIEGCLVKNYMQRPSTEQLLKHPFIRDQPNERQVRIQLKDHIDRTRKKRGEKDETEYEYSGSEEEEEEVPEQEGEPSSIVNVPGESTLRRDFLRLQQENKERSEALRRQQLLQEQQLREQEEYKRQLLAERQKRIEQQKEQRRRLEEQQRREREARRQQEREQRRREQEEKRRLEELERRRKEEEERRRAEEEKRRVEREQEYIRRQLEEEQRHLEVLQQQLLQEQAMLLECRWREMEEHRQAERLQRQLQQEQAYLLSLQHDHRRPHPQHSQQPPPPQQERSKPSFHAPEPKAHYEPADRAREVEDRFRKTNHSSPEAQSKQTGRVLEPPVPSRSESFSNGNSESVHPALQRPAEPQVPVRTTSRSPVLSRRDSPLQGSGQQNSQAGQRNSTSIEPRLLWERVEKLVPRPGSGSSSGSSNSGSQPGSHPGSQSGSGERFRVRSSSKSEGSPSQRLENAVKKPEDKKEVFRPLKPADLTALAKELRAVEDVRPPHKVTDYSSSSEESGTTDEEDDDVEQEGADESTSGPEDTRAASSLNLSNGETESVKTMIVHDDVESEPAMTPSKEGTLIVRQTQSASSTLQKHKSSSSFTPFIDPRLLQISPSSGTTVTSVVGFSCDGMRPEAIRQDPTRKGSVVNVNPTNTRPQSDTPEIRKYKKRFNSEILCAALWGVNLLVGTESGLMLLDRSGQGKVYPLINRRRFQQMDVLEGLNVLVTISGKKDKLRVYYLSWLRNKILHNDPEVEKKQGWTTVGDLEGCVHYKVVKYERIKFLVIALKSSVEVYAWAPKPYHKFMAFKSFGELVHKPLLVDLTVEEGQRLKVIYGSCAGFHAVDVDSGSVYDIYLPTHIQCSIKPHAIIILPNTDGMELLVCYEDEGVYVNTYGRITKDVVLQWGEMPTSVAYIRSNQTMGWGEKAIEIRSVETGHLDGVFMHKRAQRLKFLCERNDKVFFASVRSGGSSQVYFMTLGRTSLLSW
In short: as §1

[21] = molecular target: T21, MARK1 (Homo sapiens, UniProt Q9P0L2)
T21 construct: Ambit (KinomeScan screening)
In short: as §1

[22] = molecular target: T22, MLK1 (Homo sapiens, UniProt P80192)
T22 construct: unspecified tag ('tagged kinases'); purchased Ambit (KinomeScan screening)
In short: as §1

[23] = molecular target: T23, NDR2 (Homo sapiens, UniProt Q9Y2H1)
T23 construct: unspecified tag; purchased Ambit (KinomeScan screening panel)
In short: as §1

[24] = molecular target: T24, PAK1 (Homo sapiens, UniProt Q13153)
T24 construct: purchased Ambit (KinomeScan screening service)
In short: as §1

[25] = system: PAK5
In short: as §1

[26] = molecular target: T25, PIK3CA (Homo sapiens, UniProt P42336)
T25 construct: unspecified tag; purchased Ambit (KinomeScan screening panel)
T25 sequence (P42336 whole entry): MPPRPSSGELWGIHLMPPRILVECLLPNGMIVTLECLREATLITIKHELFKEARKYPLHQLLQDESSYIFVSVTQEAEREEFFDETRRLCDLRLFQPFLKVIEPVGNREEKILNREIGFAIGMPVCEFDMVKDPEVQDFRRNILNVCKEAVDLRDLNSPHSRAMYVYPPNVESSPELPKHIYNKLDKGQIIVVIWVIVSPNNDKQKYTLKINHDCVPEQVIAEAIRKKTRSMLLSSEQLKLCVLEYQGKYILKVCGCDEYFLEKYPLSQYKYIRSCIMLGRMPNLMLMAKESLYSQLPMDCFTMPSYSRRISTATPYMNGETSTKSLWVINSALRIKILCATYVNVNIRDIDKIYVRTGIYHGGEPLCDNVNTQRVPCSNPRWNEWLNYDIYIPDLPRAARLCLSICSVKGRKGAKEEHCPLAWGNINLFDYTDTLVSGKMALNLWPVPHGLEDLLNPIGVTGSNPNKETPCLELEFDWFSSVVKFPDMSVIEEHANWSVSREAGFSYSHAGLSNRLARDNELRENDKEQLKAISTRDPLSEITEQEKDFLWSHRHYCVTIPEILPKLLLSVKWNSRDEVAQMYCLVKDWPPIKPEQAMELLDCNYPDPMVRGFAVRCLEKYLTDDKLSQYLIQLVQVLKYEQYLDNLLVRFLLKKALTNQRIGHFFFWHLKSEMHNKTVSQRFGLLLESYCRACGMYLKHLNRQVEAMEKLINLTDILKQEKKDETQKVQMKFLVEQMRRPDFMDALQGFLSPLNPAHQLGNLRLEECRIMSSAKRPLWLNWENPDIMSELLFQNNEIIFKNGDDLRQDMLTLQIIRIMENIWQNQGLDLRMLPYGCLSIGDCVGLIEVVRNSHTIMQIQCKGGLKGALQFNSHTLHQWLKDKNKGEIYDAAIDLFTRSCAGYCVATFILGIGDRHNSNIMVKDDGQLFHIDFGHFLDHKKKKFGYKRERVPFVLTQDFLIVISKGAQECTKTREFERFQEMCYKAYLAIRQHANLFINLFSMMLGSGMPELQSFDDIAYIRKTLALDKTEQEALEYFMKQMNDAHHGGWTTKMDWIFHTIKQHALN
In short: as §1

[27] = molecular target: T26, PIP5K1A (Homo sapiens, UniProt Q99755)
T26 construct: unspecified tag; purchased Ambit (KinomeScan screening panel)
In short: as §1

[28] = molecular target: T27, PRKG1 (Homo sapiens, UniProt Q13976)
T27 construct: tag (kind not specified); purchased Ambit (KinomeScan screening service)
In short: as §1

[29] = molecular target: T28, RET (Homo sapiens, UniProt P07949)
T28 construct: tag (kind not specified); purchased Ambit (KinomeScan screening service)
In short: as §1

[30] = molecular target: T29, RIOK2 (Homo sapiens, UniProt Q9BVS4)
T29 construct: unspecified tag (tagged kinase); purchased Ambit (KinomeScan screening)
In short: as §1

[31] = molecular target: T30, RIPK1 (Homo sapiens, UniProt Q13546)
T30 construct: unspecified tag (tagged kinase); purchased Ambit (KinomeScan screening)
In short: as §1

[32] = molecular target: T31, RPS6KA5 (Homo sapiens, UniProt O75582)
T31 construct: tag, kind not specified; purchased Ambit (KinomeScan screening service)
In short: as §1

[33] = molecular target: T32, TEC (Homo sapiens, UniProt P42680)
T32 construct: unspecified tag (tagged kinase); purchased Ambit (KinomeScan screening)
In short: as §1

[34] = molecular target: T33, TNK2 (Homo sapiens, UniProt Q07912)
T33 construct: unspecified tag (tagged kinase); purchased Ambit (KinomeScan screening)
In short: as §1

[35] = molecular target: T34, YANK2 (Homo sapiens, UniProt Q9NY57)
T34 construct: purchased Ambit (KinomeScan screening service)
In short: as §1

[36] = molecular target: T35, ZAP70 (Homo sapiens, UniProt P43403)
T35 construct: purchased Ambit (KinomeScan screening service)
In short: as §1

Measured: Percent of Control Binding

Cc1ccccc1-n1c(C(C)Nc2nc(N)nc3nc[nH]c23)nc2cccc(C)c2c1=O (stereo not shown) [CAL-130]
100%: [1] | [2] | [3] | [4] | [5] | [6] | [7] | [8] | [9] | [10] | [11] | [12] | [13] | [14] | [15] | [16] | [17] | [18] | [19] | [20] | [21] | [22] | [23] | [24] | [25] | [27] | [28] | [29] | [30] | [31] | [32] | [33] | [34] | [35] | [36]
12%: [26]; PI3KCA (Table 2) | [26]; PIK3CA (Table 1)
